Earlier results, collected in patent publication US10759750B2, “Beta lactams as modulators of glutamate uptake and methods for use thereof” (Temple University—Of The Commonwealth System of Higher …, priority 2016, dated 2020).
Like-named read-outs stand apart in the source and are kept apart here.

Tests used:
[1] = system: amyotrophic lateral sclerosis (ALS); conditions: ALS patients; 50 mg of Riluzole daily and palliative drugs; after 15 months of treatment

Structure (SMILES)	increase in life expectancy [1]	free, unbound cerebrospinal fluid/plasma ratio (based on AUCs (Lutsar and Friedland, 2000)) [%]	free, unbound cerebrospinal fluid/plasma ratio (based on Cmax (Chadwick et al., 1983))
Nc1nc2ccc(OC(F)(F)F)cc2s1 [Riluzole]	2-3 months	–	–
CO/N=C(\C(=O)N[C@@H]1C(=O)N2C(C(=O)O)=C(CSc3nc(=O)c(=O)[nH]n3C)CS[C@H]12)c1csc(N)n1 [ceftriaxone]	–	1	2-13%
